# Measured values: ChEMBL document CHEMBL1142800, “Estrogen receptor ligands. Part 13: Dihydrobenzoxathiin SERAMs with an optimized antagonist side chain” (Bioorg Med Chem Lett, 2005)
# Target: Estrogen receptor beta (Homo sapiens, UniProt Q92731)
# Test: Inhibition of human estrogen receptor 2 using tritiated estradiol incubated for 3 hr
# Estrogen receptor beta, sequence (Q92731 whole entry): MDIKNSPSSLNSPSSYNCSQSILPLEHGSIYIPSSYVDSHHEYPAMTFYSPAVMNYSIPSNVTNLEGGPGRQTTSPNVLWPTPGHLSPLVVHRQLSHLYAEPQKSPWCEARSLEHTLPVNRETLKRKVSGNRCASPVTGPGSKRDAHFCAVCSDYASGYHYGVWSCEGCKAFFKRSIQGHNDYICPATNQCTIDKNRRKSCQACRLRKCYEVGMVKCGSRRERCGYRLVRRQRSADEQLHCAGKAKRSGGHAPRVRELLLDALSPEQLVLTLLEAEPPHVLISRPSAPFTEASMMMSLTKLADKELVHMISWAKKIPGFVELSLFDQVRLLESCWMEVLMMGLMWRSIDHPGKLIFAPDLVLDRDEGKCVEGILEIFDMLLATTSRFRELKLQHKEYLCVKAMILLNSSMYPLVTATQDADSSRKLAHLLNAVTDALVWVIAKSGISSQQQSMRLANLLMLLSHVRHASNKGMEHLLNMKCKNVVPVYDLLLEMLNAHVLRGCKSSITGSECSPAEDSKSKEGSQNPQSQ
row,IC50,SMILES
1,5.3 nM,C[C@@H]1CCN([C@@H](C)COc2ccc([C@@H]3Oc4ccc(O)c(F)c4S[C@@H]3c3ccc(O)cc3)cc2)C1
2,9.1 nM,C[C@@H]1CCN([C@@H](C)COc2ccc([C@@H]3Oc4ccc(O)c(F)c4S[C@@H]3c3cccc(O)c3)cc2)C1
3,69 nM,C[C@@H]1CCN([C@@H](C)COc2ccc([C@@H]3Oc4ccc(O)cc4S[C@@H]3c3cccc(O)c3)cc2)C1
